Reference: patent US20150218212A1, “FLUORINATED EPOXYKETONE-BASED TETRAPEPTIDE COMPOUNDS AND USES THEREOF AS PROTEASOME INHIBITORS” (FLUORINOV PHARMA INC., priority 2012, published 2015)

Key:
Type in all cases: cell-based, human
[1] = tested on: M14; experiment: NCI screening panel, M14 (Melanoma)
Protocol: (§1) Representative compounds of Formula I were screened using the National Cancer Institute (NCI) screening panel, which consists of a panel of human tumor cell lines, representing leukemia, melanoma, and cancers of the lung, colon, ovary, breast, prostate and renal system.
(§2) After 24 h, two plates of each cell line are fixed in situ with TCA, to represent a measurement of the cell population for each cell line at the time of drug addition (Tz). Experimental drugs are solubilised in dimethyl sulfoxide at 400-fold the desired final maximum test concentration and stored frozen prior to use. At the time of drug addition, an aliquot of frozen concentrate is thawed and diluted to twice the desired final maximum test concentration with complete medium containing 50 μg/mL gentamicin. Additional four, 10-fold or ½ log serial dilutions are made to provide a total of five drug concentrations plus control. Aliquots of 100 μl of these different drug dilutions are added to the appropriate microtiter wells already containing 100 μl of medium, resulting in the required final drug concentrations.
(§3) Following drug addition, the plates are incubated for an additional 48 h at 37° C., 5% CO2, 95% air, and 100% relative humidity. For adherent cells, the assay is terminated by the addition of cold TCA (trichloroacetic acid). Cells are fixed in situ by the gentle addition of 50 μl of cold 50% (w/v) TCA (final concentration, 10% TCA) and incubated for 60 minutes at 4° C. The supernatant is discarded, and the plates are washed five times with tap water and air dried. Sulforhodamine B (SRB) solution (100 μl) at 0.4% (w/v) in 1% acetic acid is added to each well, and plates are incubated for 10 minutes at room temperature. After staining, unbound dye is removed by washing five times with 1% acetic acid and the plates are air dried. Bound stain is subsequently solubilised with 10 mM trizma base, and the absorbance is read on an automated plate reader at a wavelength of 515 nm. For suspension cells, the methodology is the same except that the assay is terminated by fixing settled cells at the bottom of the wells by gently adding 50 μl of 80% TCA (final concentration, 16% TCA). Using the seven absorbance measurements [time zero, (Tz), control growth, (C), and test growth in the presence of drug at the five concentration levels (Ti)], the percentage growth is calculated at each of the drug concentrations levels. Percentage growth inhibition is calculated as: [(Ti−Tz)/(C−Tz)]×100 for concentrations for which Ti>/=Tz and [(Ti−Tz)/Tz]×100 for concentrations for which Ti<Tz.
(§4) Three dose response parameters are calculated for each experimental agent. Growth inhibition of 50% (GI50) is calculated from [(Ti−Tz)/(C−Tz)]×100=50, which is the drug concentration resulting in a 50% reduction in the net protein increase (as measured by SRB staining) in control cells during the drug incubation. The drug concentration resulting in total growth inhibition (TGI) is calculated from Ti=Tz. The LC50 (concentration of drug resulting in a 50% reduction in the measured protein at the end of the drug treatment as compared to that at the beginning) indicating a net loss of cells following treatment is calculated from [(Ti−Tz)/Tz]×100=−50. Values are calculated for each of these three parameters if the level of activity is reached. However, if the effect is not reached or is exceeded, the value for that parameter is expressed as greater or less than the maximum or minimum concentration tested.

[2] = tested on: OVCAR-5; experiment: NCI screening panel, OVCAR-5 (Ovarian Cancer)
Protocol: as §1, §2, §3, §4

[3] = tested on: SN12C; experiment: NCI screening panel, SN12C (Renal Cancer)
Protocol: as §1, §2, §3, §4

[4] = tested on: UACC-62; experiment: NCI screening panel, UACC-62 (Melanoma)
Protocol: as §1, §2, §3, §4

[5] = tested on: HCT-15; experiment: NCI screening panel, HCT-15 (Colon Cancer)
Protocol: as §1, §2, §3, §4

[6] = tested on: TK-10; experiment: NCI screening panel, TK-10 (Renal Cancer)
Protocol: as §1, §2, §3, §4

[7] = tested on: NCI-H522; experiment: NCI screening panel, NCI-H522 (Non-Small Cell Lung Cancer)
Protocol: as §1, §2, §3, §4

[8] = tested on: HCT-116; experiment: NCI screening panel, HCT-116 (Colon Cancer)
Protocol: as §1, §2, §3, §4

[9] = tested on: SK-MEL-28; experiment: NCI screening panel, SK-MEL-28 (Melanoma)
Protocol: as §1, §2, §3, §4

[10] = tested on: A549/ATCC; experiment: NCI screening panel, A549/ATCC (Non-Small Cell Lung Cancer)
Protocol: as §1, §2, §3, §4

[11] = tested on: MOLT-4; experiment: NCI screening panel, MOLT-4 (Leukemia)
Protocol: as §1, §2, §3, §4

[12] = tested on: OVCAR-3; experiment: NCI screening panel, OVCAR-3 (Ovarian Cancer)
Protocol: as §1, §2, §3, §4

[13] = tested on: NCI-H23; experiment: NCI screening panel, NCI-H23 (Non-Small Cell Lung Cancer)
Protocol: as §1, §2, §3, §4

[14] = tested on: SR; experiment: NCI screening panel, SR (Leukemia)
Protocol: as §1, §2, §3, §4

[15] = tested on: SK-MEL-2; experiment: NCI screening panel, SK-MEL-2 (Melanoma)
Protocol: as §1, §2, §3, §4

[16] = tested on: HT29; experiment: NCI screening panel, HT29 (Colon Cancer)
Protocol: as §1, §2, §3, §4

[17] = tested on: SK-MEL-5; experiment: NCI screening panel, SK-MEL-5 (Melanoma)
Protocol: as §1, §2, §3, §4

[18] = tested on: NCI-H322M; experiment: NCI screening panel, NCI-H322M (Non-Small Cell Lung Cancer)
Protocol: as §1, §2, §3, §4

With CC(C)C[C@H](NC(=O)[C@H](COC(F)F)NC(=O)CN1CCOCC1)C(=O)N[C@@H](Cc1ccccc1)C(=O)N[C@@H](CC(C)C)C(=O)[C@@]1(C)CO1 [Example 2, (2S)-N-[(1S)-1-benzyl-2-[[(1S)-3-methyl-1-[(2R)-2-methyloxirane-2-carbonyl]butyl]-amino]-2-oxo-ethyl]-2-[[(2S)-3-(difluoromethoxy)-2-[(2-morpholinoacetyl)amino]propanoyl]amino]-4-methyl-pentanamide] the Log10GI50 [1] was −7.39, the Log10LC50 [1] was >−4.00 and the Log10TGI50 [1] was −6.26. It also gave a Log10GI50 [2] of −7.47, a Log10LC50 [2] of −4.54 and a Log10TGI50 [2] of −6.70. The Log10GI50 [3] was −7.40, the Log10LC50 [3] was −4.92 and the Log10TGI50 [3] was −6.64. For the same compound, the Log10GI50 [4] was −7.59, the Log10LC50 [4] was >−4.00 and the Log10TGI50 [4] was −6.82. For the same compound, the Log10GI50 [5] was −6.40, the Log10LC50 [5] was >−4.00 and the Log10TGI50 [5] was −4.66. The Log10GI50 [6] was −7.47, the Log10LC50 [6] was >−4.00 and the Log10TGI50 [6] was −5.73. For the same compound, the Log10GI50 [7] was <−8.00, the Log10TGI50 [7] was −7.43 and the Log10GI50 [8] was <-8.00. The Log10LC50 [8] was −6.97, the Log10TGI50 [8] was −7.72 and the Log10GI50 [9] was −7.50. It also gave a Log10LC50 [9] of −5.23, a Log10TGI50 [9] of −6.71 and a Log10GI50 [10] of −7.52. The Log10LC50 [10] was >−4.00, the Log10TGI50 [10] was −5.93 and the Log10GI50 [11] was <-8.00. The Log10LC50 [11] was >−4.00, the Log10TGI50 [11] was −5.79 and the Log10GI50 [12] was −7.80. For the same compound, the Log10LC50 [12] was −6.64, the Log10TGI50 [12] was −7.34 and the Log10GI50 [13] was −7.73. The Log10LC50 [13] was >−4.00, the Log10TGI50 [13] was −6.67 and the Log10GI50 [14] was <−8.00. The Log10LC50 [14] was >−4.00, the Log10TGI50 [14] was >−4.00 and the Log10GI50 [15] was −7.66. For the same compound, the Log10LC50 [15] was >−4.00, the Log10TGI50 [15] was −7.06 and the Log10GI50 [16] was <−8.00. For the same compound, the Log10LC50 [16] was >−4.00, the Log10TGI50 [16] was −7.04 and the Log10GI50 [17] was −7.53. It also gave a Log10LC50 [17] of −6.23, a Log10TGI50 [17] of −6.94 and a Log10GI50 [18] of −7.01. It also gave a Log10LC50 [18] of −5.35 and a Log10TGI50 [18] of −6.43.
